Data: patent US20070010489A1 (priority 2002, published 2007)
Like-named read-outs stand apart in the source and are kept apart here.

Experiments:
84V90M [1] = molecular target: T1, 84V90M (Human immunodeficiency virus type 1 group M subtype B, UniProt P04585, I572V/L578M); experiment: cell-based; set-up: species or system HIV; conditions: Cell-based assay (MT-4)
84V90M [2] = molecular target: T1, 84V90M; assay type: biochemical, HIV; conditions: Enzymatic assay
[3] = tested on: Recombinant HIV-1 Strains With Resistance Mutations in the Protease Gene; experiment: Cross-Resistance Profile Assay, whole panel; assay type: cell-based; conditions: resistance = 5-fold and higher change in EC50 vs wild type; 11 mutant viruses
[4] = molecular target: T2, recombinant HIV-1 protease (Human immunodeficiency virus type 1 group M subtype B, UniProt P04585); experiment: biochemical; conditions: for IC50: read-out: WT IC50; for Ki: read-out: Ki
T2 construct: Enzyme: recombinant HIV-1 protease expressed in E. Coli; purchased Bachem California, Inc. H-9040; host or cells: E. coli

30N82I88D = experiment: microbe, parasite or virus in culture; assay type: cell-based, HIV; conditions: Human immunodeficiency virus 1, read-out: EC50 30N 82I88D
WT = experiment: microbe, parasite or virus in culture; assay type: cell-based, HIV
84V90M [5] = molecular target: T1, 84V90M; experiment: biochemical; assay type: biochemical, HIV; conditions: Enzymatic assay
[6] = tested on: recombinant HIV-1 10I/48V/71V/82A/90M; experiment: microbe, parasite or virus in culture; assay type: cell-based; conditions: MT-4, 48V82A90M; read-out: Cell-based assay (MT-4) EC50/nM 48V82A90M
[7] = tested on: recombinant HIV-1 10I/48V/54V/82A; experiment: microbe, parasite or virus in culture; assay type: cell-based; conditions: MT-4, 48V54V82A; read-out: Cell-based assay (MT-4) EC50/nM 48V54V82A
[8] = tested on: recombinant HIV-1 48V/54V/71V/82S; experiment: microbe, parasite or virus in culture; assay type: cell-based; conditions: MT-4, 48V54V82S; read-out: Cell-based assay (MT-4) EC50/nM 48V54V82S
[9] = tested on: mutant HIV-1 with I84V/L90M mutations; experiment: microbe, parasite or virus in culture; assay type: cell-based
[10] = tested on: recombinant HIV-1 30N/50S/82I/88D; experiment: microbe, parasite or virus in culture; assay type: cell-based; conditions: MT-4, 30N82I88D; read-out: Cell-based assay (MT-4) EC50/nM 30N82I88D
[11] = tested on: recombinant HIV-1 46I/47V/50V; experiment: microbe, parasite or virus in culture; assay type: cell-based; conditions: MT-4, 46I50V; read-out: Cell-based assay (MT-4) EC50/nM 46I50V
48V54V82A = experiment: microbe, parasite or virus in culture; assay type: cell-based, HIV; conditions: Human immunodeficiency virus 1, read-out: EC50 48V54V 82A
46I50V = experiment: microbe, parasite or virus in culture; assay type: cell-based, HIV; conditions: Human immunodeficiency virus 1, read-out: EC50 46I50V
[12] = tested on: wild-type HIV-1 strain IIIB; experiment: microbe, parasite or virus in culture; assay type: cell-based; conditions: Human immunodeficiency virus 1, IIIB
48V82A90M = experiment: microbe, parasite or virus in culture; assay type: cell-based, HIV; conditions: Human immunodeficiency virus 1, read-out: EC50 48V82A 90M
48V54V82S = experiment: microbe, parasite or virus in culture; assay type: cell-based, HIV; conditions: Human immunodeficiency virus 1, read-out: EC50 48V54V 82S
[13] = Human immunodeficiency virus 1, read-out: EC50 WT

With `CCCCN1C(=O)N(Cc2ccc3[nH]nc(N)c3c2)C(Cc2ccccc2)C(O)C(O)C1Cc1ccccc1` (stereo not shown) [DMP-851] the EC50 (84V90M [1]) was 918 nM and the IC50 (84V90M [2]) was 9.4 nM.
With `CCCCOC(=O)C(C)NP(=O)(COc1ccc(CC(NC(=O)OC2COC3OCCC23)C(O)CN(CC(C)C)S(=O)(=O)c2ccc(OC)cc2)cc1)NC(C)C(=O)OCCCC` (stereo not shown) [GS-16503] the “Total No. of Resistant Viruses” value [3] was 0.
For `O=C1N(Cc2ccccc2)C(Cc2ccccc2)C(O)C(O)C(Cc2ccccc2)N1Cc1ccccc1` (stereo not shown) [H, Ph, H], the IC50 [4] was 34 nM, the EC50 (30N82I88D) was 3360 nM and the EC50 (WT; [13]) was 2490 nM. The IC50 (84V90M [2]) was 631 nM.
`CCOP(=O)(COCCCN1C(=O)N(Cc2ccc3[nH]nc(N)c3c2)C(Cc2ccccc2)C(O)C(O)C1Cc1ccccc1)OCC` (stereo not shown) [OCH2PO3Et2] showed an EC50 (84V90M [1]) greater than 6000 nM and an IC50 (84V90M [2]) of 157 nM.
`Nc1n[nH]c2ccc(CN3C(=O)N(CCCOCP(=O)(O)O)C(Cc4ccccc4)C(O)C(O)C3Cc3ccccc3)cc12` (stereo not shown) [OCH2PO3H2] showed an EC50 (84V90M [1]) greater than 6000 nM and an IC50 (84V90M [2]) of 137 nM.
With `CCOP(=O)(COc1ccc(CC2C(O)C(O)C(Cc3ccc(OC)cc3)N(Cc3cccc(N)c3)C(=O)N2Cc2cccc(N)c2)cc1)OCC` (stereo not shown) [OCH3, Ph-mNH2, OCH2PO3Et2] the EC50 (84V90M [1]) was 535 nM, the IC50 (84V90M [5]) was 56 nM and the IC50 (84V90M [2]) was 56 nM.
`CCOP(=O)(COc1ccc(CC2C(O)C(O)C(Cc3ccc(OC)cc3)N(Cc3ccc(O)cc3)C(=O)N2Cc2ccc(O)cc2)cc1)OCC` (stereo not shown) [OCH3, Ph-pOH, OCH2PO3Et2] showed an EC50 [6] of 54 nM, an EC50 [7] of 70 nM and an EC50 [8] of 129 nM. It also gave an EC50 ([9]; MT-4, 84V90M, read-out: Cell-based assay (MT-4) EC50/nM 84V90M) of 148 nM, an EC50 [10] of 25 nM and an EC50 [11] of 90 nM.
`CCOP(=O)(CCNC(=O)Oc1ccc(CC2C(O)C(O)C(Cc3ccc(OC)cc3)N(Cc3ccc(O)cc3)C(=O)N2Cc2ccc(O)cc2)cc1)OCC` (stereo not shown) [OCH3, Ph-pOH, OCONH(CH2)2PO3Et2] was tested, and the IC50 (84V90M [5]) was 49 nM.
In the case of `O=C1N(Cc2ccccc2)C(Cc2ccc(O)cc2)C(O)C(O)C(Cc2ccc(O)cc2)N1Cc1ccccc1` (stereo not shown) [OH, Ph, OH], the EC50 (84V90M [1]) is reported as 5610 nM, the IC50 [4] is reported as 31 nM and the EC50 (30N82I88D) is reported as 756 nM. The EC50 (WT; [13]) was 117 nM, the EC50 (48V54V82A) was 2270 nM and the EC50 (46I50V) was 928 nM. It also gave an IC50 (84V90M [2]) of 397 nM.
`CCOP(=O)(COc1ccc(CC2C(O)C(O)C(Cc3ccc(O)cc3)N(Cc3ccc(O)cc3)C(=O)N2Cc2ccc(O)cc2)cc1)OCC` (stereo not shown) [OH, Ph-pOH, OCH2PO3Et2] showed an EC50 (84V90M [1]) of 1910 nM and an IC50 (84V90M [2]) of 18 nM.
`COc1ccc(S(=O)(=O)N(CC(C)C)CC(O)C(Cc2ccc(OCP(=O)(OCc3ccccc3)OCc3ccccc3)cc2)NC(=O)OC2COC3OCCC23)cc1` (stereo not shown) [drawing 1768 R1=OBn R2=OBn] was tested, and the EC50 [12] was less than 50 nM, the I84V/L90M fold change ([9]; fold difference in EC50 mutant vs wild type, class symbols) was “− (≦3)” and the CC50 (MT-2 cells; human) was 5000 to 50000 nM.
Compound `CCOC(=O)C(C)OP(=O)(COc1ccc(CC(NC(=O)OC2COC3OCCC23)C(O)CN(CC(C)C)S(=O)(=O)c2ccc(OC)cc2)cc1)Oc1ccccc1` (stereo not shown) [drawing 1775 R1=OPh R2=Lac-Et] has a CC50 (MT-2 cells; class symbols) of 5000 to 50000 nM.
With `Nc1n[nH]c2ccc(CN3C(=O)N(Cc4cccc(OCP(=O)(O)O)c4)C(Cc4ccccc4)C(O)C(O)C3Cc3ccccc3)cc12` (stereo not shown) [m-OCH2PO3H2] the EC50 (WT; read-out: EC50 WT) was greater than 12000 nM and the IC50 (84V90M [2]) was 33 nM.
Compound `Nc1n[nH]c2ccc(CN3C(=O)N(Cc4cccc(O)c4)C(Cc4ccccc4)C(O)C(O)C3Cc3ccccc3)cc12` (stereo not shown) [m-OH] has an EC50 (84V90M [1]) of 475 nM, a Ki [4] of 0.128 nM and an IC50 [4] of 1.6 nM. It also gave an IC50 (84V90M [2]) of 12 nM.
In the case of `Nc1n[nH]c2ccc(CN3C(=O)N(Cc4ccc(OCc5ccccc5)cc4)C(Cc4ccccc4)C(O)C(O)C3Cc3ccccc3)cc12` (stereo not shown) [p-OBn], the EC50 (84V90M [1]) is reported as 5310 nM, the Ki [4] is reported as greater than 5 nM and the IC50 [4] is reported as 353 nM. For the same compound, the EC50 (WT; read-out: EC50 WT) was 2120 nM.
`Nc1n[nH]c2ccc(CN3C(=O)N(Cc4ccc(O)cc4)C(Cc4ccccc4)C(O)C(O)C3Cc3ccccc3)cc12` (stereo not shown) [p-OH] showed an EC50 (30N82I88D) of 79 nM, an EC50 (48V54V82A) of 32 nM and an EC50 (46I50V) of 55 nM. The EC50 (48V82A90M) was 19 nM and the EC50 (48V54V82S) was 39 nM.
